Read-outs that look alike come from different tables or passages of the source.
Legend:
[1] = system: human SHP-77 SCLC cells as xenograft; assay: Inhibition of tumor growth, SHP-77 xenograft in NCr-nu mice; type: in vivo; conditions: for maximum number of tumours versus control, saline-treated mice / mean tumour size versus saline-treated mice: SHP-77 xenografts; for maximum number of tumours versus control, saline-treated mice: FIG. 6, not subject to analysis of significance; for mean tumour size versus saline-treated mice: i.p. treatment up to 38 days, p<0.05; for mean tumor volume: SHP-77 small cell lung cancer xenografts, saline control 260±33 mm^3
Method: SHP-77 SCLC cells were grown in culture and injected into each flank of NCr-nu mice (T cell-deficient immunocompromised mice, suitable for growth of this cell line) (2×10^6 cells per injection, in Matrigel™). One day after injection of tumour cells, groups of 5 mice each were injected with 3 mg/kg of COTI-2MO5 or COTI-4MO5 (i.p.), once every 2 days, up to 38 days. Tumour size was estimated at 5, 10, 17, 24, and 38 days, by external caliper measurement. Animals were humanely euthanized after the 38 day tumour measurement.
For comparison, mice (5 mice per group, injected as described above with SHP-77 human tumor cells as described above) and harbouring SHP-77 xenografts were treated with Taxol® (12.5 mg/kg, i.p. in 0.5 ml isotonic saline) every 2 days (according to the report of J. Riondel et al., Anticancer Res. 8:387-90, 1988) or with cisplatin (3.0 mg/kg of DDP i.p., once per week for four weeks, in isotonic saline, according to the report of P. A. Andrews et al., Cancer Commun. 2:93-100, 1990). Tumour size was estimated at 5, 10, 17, 24, and 38 days, by external caliper measurement. Animals were humanely euthanized after the 38 day tumour measurement.

[2] = system: DMS-114 human SCLC cell line; assay: In vitro tumor cell growth inhibition, cell count after 3 days; type: cell-based
Method: (§1) Cells were counted after 3 days in culture and at a cell density of no more than 80%.
(§2) In vitro inhibition of small cell lung cancer (SCLC) cell lines by the compound of formula 1A was done with standard human tumor cells (established cell lines available from the American Type Tissue culture collection). […] Cells were counted after 3 days in culture and at a cell density of no more than 80%.
(§3) Briefly, cells were plated in plastic tissue culture plates and grown under standard conditions for each cell line, in carbon dioxide/oxygen atmosphere in plastic tissue culture plates, in the presence of COTI-4 or COTI-4A compounds at 35° C. for 3 days. Control cultures were treated with vehicle minus compound. Cells were counted after 3 days in culture and at a cell density of no more than 80%. The following cell lines, obtained from the National Cancer Institute, were tested: human SCLC cell lines DMS 153, DMS114, SHP77; human NSCLC cell lines H226, A460, A549; human breast cancer cell lines T47D, MCF7; human colon cancer cell line HT29; and, human Leukemia cell lines K562, HL60.

[3] = system: SHP-77 human SCLC cell line; assay: as above; type: cell-based; conditions: for IC50: Homo sapiens
Method: as §1, §2, §3

[4] = system: DMS-153 human SCLC cell line; assay: as above; type: cell-based; conditions: for IC50: DMS-153 SCLC cells, 3 days, 35° C.
Method: as §1, §2, §3

[5] = system: H226 squamous cell carcinoma-derived cells (NSCLC); assay: as above; type: cell-based; conditions: Homo sapiens
Method: (§4) In vitro inhibition of non-small cell lung cancer (NSCLC) cell lines by the compound of Formula 1B (COTI-4) was evaluated. […] Cells were counted after 3 days in culture and at a cell density of no more than 80%.
(§5) In vitro inhibition of non-small cell lung cancer (NSCLC) cell lines by the compound of Formula 1A is evaluated. […] Cells are counted after 3 days in culture and at a cell density of no more than 80%.
as §3

[6] = system: A460 large cell carcinoma-derived cells (NSCLC; also printed H460); assay: as above; type: cell-based; conditions: Homo sapiens
Method: as §4, §5, §3

[7] = system: A549 adenocarcinoma-derived cells (NSCLC); assay: as above; type: cell-based; conditions: Homo sapiens
Method: as §4, §5, §3

[8] = system: human small cell lung cancer cell lines (DMS-114, DMS-153, SHP-77); assay: In vitro inhibition of SCLC cell lines, summary statements; type: cell-based
Excerpt: as §1, §2

[9] = system: human non-small cell lung cancer cell lines (A549, H226, A460); assay: In vitro inhibition of NSCLC cell lines, summary statements; type: cell-based; conditions: across NSCLC cell lines, read-out: IC50 values, inhibits growth and/or kills NSCLC cells
Method: (§6) In vitro inhibition of non-small cell lung cancer (NSCLC) cell lines by the compound of Formula 1B (COTI-4) was evaluated. Standard numbers of human tumor cells (established cell lines available from the American Type Tissue culture collection) were plated in plastic tissue culture plates and grown under standard conditions for each cell line, in carbon dioxide/oxygen atmosphere in plastic tissue culture plates, in the presence of COTI-4 (0-1 mM) or Gleevec® ([…]) at 35° C. for 3 days. Control cultures were treated with vehicle minus compound or Gleevec®. Cells were counted after 3 days in culture and at a cell density of no more than 80%.
as §6, with “Formula 1A is” for “Formula 1B (COTI-4) was”, “of compounds of formula 1A” for “of COTI-4”, “cultures are” for “cultures were”, “Cells are” for “Cells were”

[10] = Escalating dose acute toxicity study in mice; type: in vivo; conditions: mice, 4, 8, 16 mg/kg, alternate day IP injections for 28 days
Method: An escalating dose acute toxicity study was conducted with COTI-2, COTI-4 (Formula 1B) and COTI-219. Standard lab mice were divided into four treatment groups (control, 4, 8, 16 mg/kg) with four animals per group. It should be noted that the highest dose was approximately 10 times the estimated effective dose. Mice were given alternate day IP injections for 28 days.

[11] = system: K562 human Leukemia cell line; assay: In vitro IC50 against cancer cell lines; type: cell-based; conditions: 72 h, K562 leukemia cells, 3 days, 35° C.
Method: (§7) Briefly, cells were plated in plastic tissue culture plates and grown under standard conditions for each cell line, in carbon dioxide/oxygen atmosphere in plastic tissue culture plates, in the presence of COTI-4 or COTI-4A compounds at 35° C. for 3 days. Control cultures were treated with vehicle minus compound. Cells were counted after 3 days in culture and at a cell density of no more than 80%.

[12] = system: T47D human breast cancer cell line; assay: In vitro IC50 against cancer cell lines; type: cell-based; conditions: 72 h, T47D breast cancer cells, 3 days, 35° C.
Method: as §7

[13] = system: HT29 human colon cancer cell line; assay: In vitro IC50 against cancer cell lines; type: cell-based; conditions: HT-29, 72 h, HT29 colorectal cancer cells, 3 days, 35° C.
Method: as §7

[14] = system: MCF7 human breast cancer cell line; assay: In vitro IC50 against cancer cell lines; type: cell-based; conditions: 72 h, MCF7 breast cancer cells, 3 days, 35° C.
Method: as §7

[15] = system: HL60 human Leukemia cell line; assay: In vitro IC50 against cancer cell lines; type: cell-based; conditions: HL-60, 72 h, HL60 leukemia cells, 3 days, 35° C.
Method: as §7

[16] = Homo sapiens, DMS-114, actual in-vitro data, logarithm of IC50, negative, read-out: DMS114 (Log IC50) (converted)
[17] = SHP77, 72 h, SHP-77 SCLC cells, 3 days, 35° C., read-out: IC50
[18] = SHP77, actual in-vitro data, logarithm of IC50, negative, read-out: SHP-77 (Log IC50) (converted)
[19] = NCI-H226, 72 h, H226 NSCLC cells, 3 days, 35° C., read-out: IC50
[20] = NCI-H226, actual in-vitro data, logarithm of IC50, negative, read-out: H226 (Log IC50) (converted)
[21] = NCI-H460, 72 h, A460 NSCLC cells, 3 days, 35° C., read-out: IC50
[22] = NCI-H460, actual in-vitro data, logarithm of IC50, negative, read-out: H460 (Log IC50) (converted)
[23] = 72 h, A549 NSCLC cells, 3 days, 35° C., read-out: IC50
[24] = A549, actual in-vitro data, logarithm of IC50, negative, read-out: A549 (Log IC50) (converted)

Compound	maximum number of tumours versus control, saline-treated mice [1]	mean tumour size versus saline-treated mice [1]	IC50 [2, 16]	IC50 [3, 17]	IC50 [3, 18]	IC50 [5, 19]	IC50 [5, 20]	IC50 [6, 21]	IC50 [6, 22]	IC50 [7, 23]	IC50 [7, 24]	IC50 [9]	mean tumor volume [1]	further results
S=C(N/N=C1/CCCc2cccnc21)N1CCN(c2ccccn2)CC1 [COTI-2]	lower than that in control	significantly lower												
CN1CCN(C(=S)NN=C2c3ncccc3-c3cccnc32)CC1 [COTI-219]	lower than that in control													
CN1CCN(C(=S)NN=C(c2ccccc2)c2ccnnc2)CC1 [Formula 1A, 4-methyl-N′-[phenyl(pyridazin-4-yl)methylidene]piperazine-1-carbothiohydrazide]			0.65 µM	10 µM	10.7 µM	90 µM	63.5 µM	100 µM	72.4 µM	1.5 µM	1.57 µM	≥ 1.5 µM		times more effective in vitro than Gleevec® ([2]; DMS-114): about 100; IC50 ([2]; DMS-114 SCLC cells, 3 days, 35° C., listed as COTI-4A, read-out: IC50): 0.65 µM; IC50 ([2]; Homo sapiens, DMS-114, 72 h, DMS-114 SCLC cells, 3 days, 35° C., read-out: IC50): < 1 µM; effectiveness relative to Gleevec® ([3]; SHP-77): about twice as effective; times more effective in vitro than Gleevec® ([4]; DMS-153): about 100; IC50 ([8]; Homo sapiens, across SCLC cell lines, depending on cell line tested, read-out: IC50 values, inhibits growth and/or kills SCLC cells): ≥ 0.65 µM; melting point: 141 to 143 °C
CN1CCN(C(=S)NN=C(c2ccccn2)c2ccccn2)CC1 [Formula 1B, N′-(dipyridin-2-ylmethylidene)-4-methylpiperazine-1-carbothiohydrazide]	lower than that in control	significantly lower	0.03 µM	0.173 µM	0.173 µM	2.5 µM	2.5 µM	5.1 µM	5.11 µM	6.8 µM	6.81 µM	≥ 2.5 µM	6.2 mm^3	acute toxicity / adverse events [10]: safe and non-toxic at all dosage levels; IC50 ([2]; DMS-114 SCLC cells, 3 days, 35° C., listed as COTI-4 (1B), read-out: IC50): 0.03 µM; IC50 ([2]; DMS-114 SCLC cells, 3 days, 35° C., listed as COTI-4M05, read-out: IC50): 0.03 µM; IC50 ([4]; listed as COTI-4 (1B)): 0.13 µM; IC50 ([4]; listed as COTI-4M05): 0.13 µM; times more effective than Gleevec® against these cell lines in vitro ([8]; 3 human small cell lung cancer cell lines): over 100; IC50 [11]: 0.095 µM; IC50 [12]: 0.224 µM; IC50 [13]: 0.083 µM; IC50 [14]: 0.291 µM; IC50 [15]: 0.318 µM
CC(=O)O[C@H]1C(=O)[C@@]2(C)[C@H]([C@H](OC(=O)c3ccccc3)[C@]3(O)C[C@H](OC(=O)[C@H](O)[C@@H](NC(=O)c4ccccc4)c4ccccc4)C(C)=C1C3(C)C)[C@]1(OC(C)=O)CO[C@@H]1C[C@@H]2O [Taxol®, paclitaxel]	lower than that in control	significantly lower											183 mm^3	
N.N.[Cl][Pt][Cl] [cisplatin]	lower than that in control	significantly lower											132±26 mm^3	

— patent US8466151B2, “Compounds and method for treatment of cancer” (Critical Outcome Technologies, Inc., priority 2007, dated 2013)
